Assay results published in US20170349593A1, “BTK INHIBITORS” (MERCK SHARP & DOHME CORP., priority 2014, published 2017).
pIC50: −log10 of the molar value.

Key:
[1] = test system: adenosine uptake into HeLa cells; assay: [3H]Adenosine uptake assay; format: cell-based; conditions: Homo sapiens; accumulation of [3H]adenosine into HeLa cells; concentration range 10 μM to 0.032 nM; read-out: ADU inhibition IC50
Outline: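 HeLa cells (25 000/well), plated overnight, were preincubated 30 minutes at ambient temperature with compound in HBSS + 5% FBS. Ten-point titrations ran from 10 μM to 0.032 nM final. [3H]adenosine was added from a 500 nM solution for 60 minutes, and uptake was measured by scintillation proximity counting; IC50 came from a 4-parameter fit.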

[2] = target: T1, BTK enzyme (recombinant full-length BTK, hBTK) (Homo sapiens, UniProt Q06187); assay: Btk enzyme activity assay (LANCE TR-FRET); format: biochemical; conditions: 50 pM hBTK, 25 μM ATP, 60 minute compound and enzyme incubation, concentration range 1 μM to 0.017 nM, read-out: BTK binding IC50
T1 construct: recombinant protein from baculovirus-transfected S 19 cells: full-length BTK, 6 HIS-tag cleaved; 6 HIS-tag (cleaved yes); made in house
T1 sequence (Q06187 whole entry): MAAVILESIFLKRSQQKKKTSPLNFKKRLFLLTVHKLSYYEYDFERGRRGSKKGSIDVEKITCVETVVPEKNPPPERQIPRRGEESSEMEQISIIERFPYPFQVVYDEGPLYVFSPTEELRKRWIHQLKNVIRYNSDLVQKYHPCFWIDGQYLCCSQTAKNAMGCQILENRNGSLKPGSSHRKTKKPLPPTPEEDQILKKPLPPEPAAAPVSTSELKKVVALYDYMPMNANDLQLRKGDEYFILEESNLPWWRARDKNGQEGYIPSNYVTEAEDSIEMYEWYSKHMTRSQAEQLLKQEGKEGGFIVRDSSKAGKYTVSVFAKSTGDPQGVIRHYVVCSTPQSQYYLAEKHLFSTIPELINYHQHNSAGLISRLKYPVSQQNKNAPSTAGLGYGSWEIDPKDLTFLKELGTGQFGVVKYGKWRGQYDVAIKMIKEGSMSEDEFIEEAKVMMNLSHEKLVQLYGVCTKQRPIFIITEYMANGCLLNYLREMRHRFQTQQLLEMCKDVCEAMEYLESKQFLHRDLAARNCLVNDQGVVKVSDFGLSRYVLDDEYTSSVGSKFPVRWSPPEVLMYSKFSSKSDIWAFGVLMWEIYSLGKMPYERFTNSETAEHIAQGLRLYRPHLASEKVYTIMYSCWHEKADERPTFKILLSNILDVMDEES

Row | SMILES | pIC50 [1] | pIC50 [2]
1 | C[C@H](O)C(=O)N1C[C@H](c2nc(-c3ccc(C(=O)Nc4cc(C5CC5)ccn4)cc3)c3c(N)nccn23)CC[C@@H]1C [Example 91, 4-(8-amino-3-{(3R,6S)-1-[(2S)-2-hydroxypropanoyl]-6-methylpiperidin-3-yl}imidazo[1,5-a]pyrazin-1-yl)-N-(4-cyclopropylpyridin-2-yl)benzamide] | 7.40 | 9.53
2 | C[C@H]1CC[C@@H](c2nc(-c3ccc(C(=O)Nc4cc(C(F)F)ccn4)cc3)c3c(N)nccn23)CN1C(=O)N(C)C [Example 92, (2S,5R)-5-[8-amino-1-(4-{[4-(difluoromethyl)pyridin-2-yl]carbamoyl}phenyl)imidazo[1,5-a]pyrazin-3-yl]-N,N,2-trimethylpiperidine-1-carboxamide] | 7.65 | 9.67
3 | C[C@H]1CC[C@@H](c2nc(-c3ccc(C(=O)Nc4cc(C(F)F)ccn4)cc3)c3c(N)nccn23)CN1C(=O)C1(O)CC1 [Example 93, 4-(8-amino-3-{(3R,6S)-1-[(1-hydroxycyclopropyl)carbonyl]-6-methylpiperidin-3-yl}imidazo[1,5-a]pyrazin-1-yl)-N-[4-(difluoromethyl)pyridin-2-yl]benzamide] | 7.43 | 9.60
4 | C[C@H]1CC[C@@H](c2nc(-c3ccc(C(=O)Nc4cc(C(C)(F)F)ccn4)cc3)c3c(N)nccn23)CN1C(=O)CO [Example 95, 4-{8-amino-3-[(3R,6S)-1-(hydroxyacetyl)-6-methylpiperidin-3-yl]imidazo[1,5-a]pyrazin-1-yl}-N-[4-(1,1-difluoroethyl)pyridin-2-yl]benzamide] | 6.76 | 9.77
5 | C[C@H]1CC[C@@H](c2nc(-c3ccc(C(=O)Nc4cc(C(C)(F)F)ccn4)cc3)c3c(N)nccn23)CN1C(=O)N(C)C [Example 96, (2S,5R)-5-[8-amino-1-(4-{[4-(1,1-difluoroethyl)pyridin-2-yl]carbamoyl}phenyl)imidazo[1,5-a]pyrazin-3-yl]-N,N,2-trimethylpiperidine-1-carboxamide] | 7.16 | 9.78
6 | COCC(=O)N1C[C@H](c2nc(-c3ccc(C(=O)Nc4cc(C(C)(F)F)ccn4)cc3)c3c(N)nccn23)CC[C@@H]1C [Example 97, 4-{8-amino-3-[(3R,6S)-1-(methoxyacetyl)-6-methylpiperidin-3-yl]imidazo[1,5-a]pyrazin-1-yl}-N-[4-(1,1-difluoroethyl)pyridin-2-yl]benzamide] | 6.89 | 9.49
7 | CCOc1cc(C(=O)Nc2cc(C(F)(F)F)ccn2)ccc1-c1nc([C@H]2CN(C(=O)[C@H](C)O)[C@@H](C)CO2)n2ccnc(N)c12 [Example 98, 4-(8-amino-3-{(2R,5S)-4-[(2S)-2-hydroxypropanoyl]-5-methylmorpholin-2-yl}imidazo[1,5-a]pyrazin-1-yl)-3-ethoxy-N-[4-(trifluoromethyl)pyridin-2-yl]benzamide] | 5.79 | 8.76
8 | CCOc1cc(C(=O)Nc2cc(C(F)(F)F)ccn2)ccc1-c1nc([C@H]2CN(C(=O)[C@H](C)O)[C@@H](C)CO2)n2c(CC)cnc(N)c12 [Example 99, 4-(8-amino-5-ethyl-3-{(2R,5S)-4-[(2S)-2-hydroxypropanoyl]-5-methylmorpholin-2-yl}imidazo[1,5-a]pyrazin-1-yl)-3-ethoxy-N-[4-(trifluoromethyl)pyridin-2-yl]benzamide] | 5.70 | 9.10
9 | C[C@H](O)C(=O)N1C[C@H](c2nc(-c3ccc(C(=O)Nc4cc(C(F)(F)F)ccn4)cc3Cl)c3c(N)ncc(Cl)n23)OC[C@@H]1C [Example 100, 4-(8-amino-5-chloro-3-{(2R,5S)-4-[(2S)-2-hydroxypropanoyl]-5-methylmorpholin-2-yl}imidazo[1,5-a]pyrazin-1-yl)-3-chloro-N-[4-(trifluoromethyl)pyridin-2-yl]benzamide] | 6.18 | 9.19
10 | CCOc1cc(C(=O)Nc2cc(C(F)(F)F)ccn2)cc(F)c1-c1nc([C@H]2CN(C(=O)[C@H](C)O)[C@@H](C)CO2)n2c(Cl)cnc(N)c12 [Example 101, 4-(8-amino-5-chloro-3-{(2R,5S)-4-[(2S)-2-hydroxypropanoyl]-5-methylmorpholin-2-yl}imidazo[1,5-a]pyrazin-1-yl)-3-ethoxy-5-fluoro-N-[4-(trifluoromethyl)pyridin-2-yl]benzamide] | 5.56 | 9.18
11 | CCOc1cc(C(=O)Nc2cc(C(F)(F)F)ccn2)ccc1-c1nc([C@H]2CN(C(=O)C3CC3(F)F)[C@@H](C)CO2)n2c(Cl)cnc(N)c12 (stereo partly drawn) [Example 102, 4-(8-amino-5-chloro-3-{(2R,5S)-4-[(2,2-difluorocyclopropyl)carbonyl]-5-methylmorpholin-2-yl}imidazo[1,5-a]pyrazin-1-yl)-3-ethoxy-N-[4-(trifluoromethyl)pyridin-2-yl]benzamide] | 5.23 | 8.51
12 | CCOc1cc(C(=O)Nc2cc(C(F)(F)F)ccn2)ccc1-c1nc([C@H]2CN(C(=O)C3(C#N)CC3)[C@@H](C)CO2)n2c(Cl)cnc(N)c12 [Example 103, 4-(8-amino-5-chloro-3-{(2R,5S)-4-[(1-cyanocyclopropyl)carbonyl]-5-methylmorpholin-2-yl}imidazo[1,5-a]pyrazin-1-yl)-3-ethoxy-N-[4-(trifluoromethyl)pyridin-2-yl]benzamide] | 5.25 | 8.72
13 | CCOc1cc(C(=O)Nc2cc(C(F)(F)F)ccn2)ccc1-c1nc([C@H]2CN(C(=O)CCOC)[C@@H](C)CO2)n2c(Cl)cnc(N)c12 [Example 104, 4-{8-amino-5-chloro-3-[(2R,5S)-4-(3-methoxypropanoyl)-5-methylmorpholin-2-yl]imidazo[1,5-a]pyrazin-1-yl}-3-ethoxy-N-[4-(trifluoromethyl)pyridin-2-yl]benzamide] | 5.21 | 8.88
14 | CCOc1cc(C(=O)Nc2cc(C(F)(F)F)ccn2)c(F)cc1-c1nc([C@H]2CN(C(=O)C3CC3)[C@@H](C)CO2)n2c(Cl)cnc(N)c12 [Example 105, 4-{8-amino-5-chloro-3-[(2R,5S)-4-(cyclopropylcarbonyl)-5-methylmorpholin-2-yl]imidazo[1,5-a]pyrazin-1-yl}-5-ethoxy-2-fluoro-N-[4-(trifluoromethyl)pyridin-2-yl]benzamide] | 5.29 | 8.60
15 | CCOc1cc(C(=O)Nc2cc(C(F)(F)F)ccn2)ccc1-c1nc([C@H]2CN(C(=O)[C@H](C)O)[C@@H](C)CO2)n2c(F)cnc(N)c12 [Example 106, 4-(8-amino-5-fluoro-3-{(2R,5S)-4-[(2S)-2-hydroxypropanoyl]-5-methylmorpholin-2-yl}imidazo[1,5-a]pyrazin-1-yl)-3-ethoxy-N-[4-(trifluoromethyl)pyridin-2-yl]benzamide] | 5.20 | 8.37
16 | CCOc1cc(C(=O)Nc2cc(C(F)(F)F)ccn2)cc(F)c1-c1nc([C@H]2CN(C(=O)[C@@H](C)O)[C@@H](C)CO2)n2c(Cl)cnc(N)c12 [Example 107, 4-(8-amino-5-chloro-3-{(2R,5S)-4-[(2R)-2-hydroxypropanoyl]-5-methylmorpholin-2-yl}imidazo[1,5-a]pyrazin-1-yl)-3-ethoxy-5-fluoro-N-[4-(trifluoromethyl)pyridin-2-yl]benzamide] | 5.70 | 9.32
17 | CCOc1cc(C(=O)Nc2cc(C(F)(F)F)ccn2)ccc1-c1nc([C@H]2CN(C3CCS(=O)(=O)CC3)[C@@H](C)CO2)n2c(Cl)cnc(N)c12 [Example 108, 4-{8-amino-5-chloro-3-[(2R,5S)-4-(1,1-dioxidotetrahydro-2H-thiopyran-4-yl)-5-methylmorpholin-2-yl]imidazo[1,5-a]pyrazin-1-yl}-3-ethoxy-N-[4-(trifluoromethyl)pyridin-2-yl]benzamide] | 5.88 | 8.74
18 | CCOc1cc(C(=O)Nc2cc(C(F)(F)F)n(C)n2)ccc1-c1nc([C@@H]2CC[C@H](C)N(C(=O)[C@@H](C)O)C2)n2ccnc(N)c12 [Example 109, 4-(8-amino-3-{(3R,6S)-1-[(2R)-2-hydroxypropanoyl]-6-methylpiperidin-3-yl}imidazo[1,5-a]pyrazin-1-yl)-3-ethoxy-N-[1-methyl-5-(trifluoromethyl)-1H-pyrazol-3-yl]benzamide] | 5.48 | 9.39
19 | CCc1cnc(N)c2c(-c3ccc(C(=O)Nc4cc(C(F)(F)F)ccn4)cc3F)nc([C@H]3CN(C(=O)C4CC4)[C@@H](C)CO3)n12 [Example 110, 4-{8-amino-3-[(2R,5S)-4-(cyclopropylcarbonyl)-5-methylmorpholin-2-yl]-5-ethylimidazo[1,5-a]pyrazin-1-yl}-3-fluoro-N-[4-(trifluoromethyl)pyridin-2-yl]benzamide] | 6.27 | 9.17
20 | CCOc1cc(C(=O)Nc2cc(C(F)(F)F)ccn2)ccc1-c1nc([C@@H]2CC[C@H](C)N(C(=O)[C@@H](C)O)C2)n2c(Cl)cnc(N)c12 [Example 111, 4-(8-amino-5-chloro-3-{(3R,6S)-1-[(2R)-2-hydroxypropanoyl]-6-methylpiperidin-3-yl}imidazo[1,5-a]pyrazin-1-yl)-3-ethoxy-N-[4-(trifluoromethyl)pyridin-2-yl]benzamide] | 6.01 | 9.56
21 | Nc1c(N[C@H]2C[C@H](c3nc(-c4ccc(C(=O)Nc5cc(C(F)(F)F)ccn5)cc4)c4c(N)nccn43)C2)c(=O)c1=O [Example 112, 4-(8-amino-3-{trans-3-[(2-amino-3,4-dioxocyclobut-1-en-1-yl)amino]cyclobutyl}imidazo[1,5-a]pyrazin-1-yl)-N-[4-(trifluoromethyl)pyridin-2-yl]benzamide] | 5.64 | 9.60
